Where a SMILES comes first, the peptide text is derived from it. Bridges are numbered along the chain shown (N, C = ends). [ ]: non-standard residue; d: D form. The star is where a group is joined. Phe(3,4-F2) = N[C@@H](Cc1ccc(F)c(F)c1)C(=O)O; Palmitoyl = CCCCCCCCCCCCCCCC(=O)*; R8 = C=CCCCCCC[C@@](C)(N)C(=O)O; Cba = N[C@@H](CC1CCC1)C(=O)O; S5 = C=CCCC[C@](C)(N)C(=O)O; Nle = CCCC[C@H](N)C(=O)O
Legend:
[1] = target: MDM2 (Homo sapiens, UniProt Q00987); test: Competitive fluorescence polarization assay for MDM2; type: binding; details: competitive FP assay, MDM2; for IC50: read-out: IC50 (MDM2); for Ki: read-out: Ki (MDM2)
Method: Dilute 1 mM (in 100% DMSO) of FAM labeled linear peptide with DMSO to 100 μM (dilution 1:10). Then, dilute from 100 μM to 10 μM with water (dilution 1:10) and then dilute with FP buffer from 10 μM to 40 nM (dilution 1:250). This is the working solution which will be a 10 nM concentration in well (dilution 1:4). […] Then, dilute from 5 mM to 500 μM with H2O (dilution 1:10) and then dilute with FP buffer from 500 μM to 20 μM (dilution 1:25).
Dilute 1 mM (in 100% DMSO) of FAM labeled linear peptide with DMSO to 100 μM (dilution 1:10). Then, dilute from 100 μM to 10 μM with water (dilution 1:10) and then dilute with FP buffer from 10 μM to 40 nM (dilution 1:250). This is the working solution which will be a 10 nM concentration in well (dilution 1:4). […] Dilute 10 mM (in 100% DMSO) with DMSO to 5 mM (dilution 1:2). Then, dilute from 5 mM to 500 μM with H2O (dilution 1:10) and then dilute with FP buffer from 500 μM to 20 μM (dilution 1:25). […] Transfer 10 μl of serial diluted unlabeled peptides to each well which is filled with 20 μl of 300 nM of protein. • 7. Add 10 μl of 10 nM (4×) of FAM labeled peptide into each well and incubate for 3 hr to read.

[2] = target: T1, MDMX (Homo sapiens, UniProt O15151); test: Competitive fluorescence polarization assay for MDMX; type: binding; details: competitive FP assay; for IC50: read-out: IC50 (MDMX); for Ki: read-out: Ki (MDMX)
T1 sequence (O15151 1-125): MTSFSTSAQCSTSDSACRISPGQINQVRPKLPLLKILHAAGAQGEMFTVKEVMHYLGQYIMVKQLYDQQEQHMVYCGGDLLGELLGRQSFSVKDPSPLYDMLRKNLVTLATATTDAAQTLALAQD

Sequence of MDM2 (Q00987 1-125): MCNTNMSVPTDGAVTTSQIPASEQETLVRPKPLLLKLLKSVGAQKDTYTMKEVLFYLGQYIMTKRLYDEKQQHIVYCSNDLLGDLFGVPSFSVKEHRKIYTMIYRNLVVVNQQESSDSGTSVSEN

Row | IC50 [1] [nM] | Ki [1] [nM] | IC50 [2] [nM] | Ki [2] [nM] | Compound
1 | 10 to 100 | < 10 | 100 to 1000 | 10 to 100 | CC[C@H](C)[C@H](NC(C)=O)C(=O)N[C@H](C(=O)N[C@@H](Cc1ccccc1)C(=O)N[C@]1(C)CCCCCCC=CCCC[C@@](C)(C(=O)N[C@@H](C)C(=O)N[C@@H](Cc2c[nH]cn2)C(=O)N[C@@H](Cc2ccccc2)C(=O)N[C@@H](C)C(N)=O)NC(=O)[C@H](CC(C)C)NC(=O)[C@H](CCC(N)=O)NC(=O)[C@H](C(C)C)NC(=O)[C@H](Cc2c[nH]c3ccccc23)NC(=O)[C@H](Cc2ccc(O)cc2)NC(=O)[C@H](CCC(=O)O)NC1=O)[C@@H](C)O [compound 192] (Ac-ITF[R8]EYWVQL[S5]AHFA-NH2; staple 4-11)
2 | < 10 | < 10 | 100 to 1000 | 10 to 100 | CC[C@H](C)[C@H](NC(=O)[C@H](Cc1c[nH]cn1)NC(=O)[C@H](C)NC(=O)[C@]1(C)CCCC=CCCCCCC[C@@](C)(NC(=O)[C@H](Cc2ccccc2)NC(=O)[C@@H](NC(=O)[C@H](CC(C)C)NC(C)=O)[C@@H](C)O)C(=O)N[C@@H](C)C(=O)N[C@@H](Cc2c[nH]cn2)C(=O)N[C@@H](Cc2c[nH]c3ccccc23)C(=O)N[C@@H](C)C(=O)N[C@@H](CCC(N)=O)C(=O)N[C@@H](CC(C)C)C(=O)N1)C(=O)N[C@H](C)C(N)=O [compound 207] (Ac-LTF[R8]AHWAQL[S5]AHI[dA]-NH2; staple 4-11)
3 | 10 to 100 | < 10 | 100 to 1000 | 10 to 100 | CCCC[C@H](NC(=O)[C@H](C)NC(=O)[C@H](C)NC(=O)[C@]1(C)CCCC=CCCCCCC[C@@](C)(NC(=O)[C@H](Cc2ccccc2)NC(=O)[C@@H](NC(=O)[C@H](CC(C)C)NC(C)=O)[C@@H](C)O)C(=O)N[C@@H](C)C(=O)N[C@@H](Cc2ccc(O)cc2)C(=O)N[C@@H](Cc2c[nH]c3ccccc23)C(=O)N[C@@H](C)C(=O)N[C@@H](CCC(N)=O)C(=O)N[C@@H](CC2CCC2)C(=O)N1)C(=O)N[C@@H](C)C(N)=O [compound 236] (Ac-LTF[R8]AYWAQ[Cba][S5]AA[Nle]A-NH2; staple 4-11)
4 | 10 to 100 | 10 to 100 | 100 to 1000 | 10 to 100 | CCCC[C@H](NC(=O)[C@H](Cc1c[nH]c2ccccc12)NC(=O)[C@H](C)NC(=O)[C@]1(C)CCCC=CCCCCCC[C@@](C)(NC(=O)[C@H](Cc2ccccc2)NC(=O)[C@@H](NC(=O)[C@H](CC(C)C)NC(C)=O)[C@@H](C)O)C(=O)N[C@@H](C)C(=O)N[C@@H](Cc2ccc(O)cc2)C(=O)N[C@@H](Cc2c[nH]c3ccccc23)C(=O)N[C@@H](C)C(=O)N[C@@H](CCC(N)=O)C(=O)N[C@@H](CC2CCC2)C(=O)N1)C(=O)N[C@@H](C)C(N)=O [compound 239] (Ac-LTF[R8]AYWAQ[Cba][S5]AW[Nle]A-NH2; staple 4-11)
5 | 10 to 100 | < 10 | 100 to 1000 | 10 to 100 | CCCC[C@H](NC(=O)[C@H](Cc1c[nH]c2ccccc12)NC(=O)[C@H](C)NC(=O)[C@]1(C)CCCC=CCCCCCC[C@@](C)(NC(=O)[C@H](Cc2ccccc2)NC(=O)[C@@H](NC(=O)[C@H](CCC(=O)O)NC(C)=O)[C@@H](C)O)C(=O)N[C@@H](C)C(=O)N[C@@H](Cc2ccc(O)cc2)C(=O)N[C@@H](Cc2c[nH]c3ccccc23)C(=O)N[C@@H](C)C(=O)N[C@@H](CCC(N)=O)C(=O)N[C@@H](CC2CCC2)C(=O)N1)C(=O)N[C@@H](C)C(N)=O [compound 240] (Ac-ETF[R8]AYWAQ[Cba][S5]AW[Nle]A-NH2; staple 4-11)
6 | 10 to 100 | < 10 | 100 to 1000 | 10 to 100 | CCCC[C@H](NC(=O)[C@H](Cc1c[nH]c2ccccc12)NC(=O)[C@H](C)NC(=O)[C@]1(C)CCCC=CCCCCCC[C@@](C)(NC(=O)[C@H](Cc2ccccc2)NC(=O)[C@@H](NC(=O)[C@H](CC(C)C)NC(C)=O)[C@@H](C)O)C(=O)N[C@@H](CCC(=O)O)C(=O)N[C@@H](Cc2ccc(O)cc2)C(=O)N[C@@H](Cc2c[nH]c3ccccc23)C(=O)N[C@@H](C)C(=O)N[C@@H](CCC(N)=O)C(=O)N[C@@H](CC2CCC2)C(=O)N1)C(=O)N[C@@H](C)C(N)=O [compound 241] (Ac-LTF[R8]EYWAQ[Cba][S5]AW[Nle]A-NH2; staple 4-11)
7 | 10 to 100 | < 10 | 100 to 1000 | 10 to 100 | CCCC[C@H](NC(=O)[C@H](C)NC(=O)[C@H](CO)NC(=O)[C@]1(C)CCCC=CCCCCCC[C@@](C)(NC(=O)[C@H](Cc2ccccc2)NC(=O)[C@@H](NC(=O)[C@H](CC(C)C)NC(C)=O)[C@@H](C)O)C(=O)N[C@@H](CCC(=O)O)C(=O)N[C@@H](Cc2ccc(O)cc2)C(=O)N[C@@H](Cc2c[nH]c3ccccc23)C(=O)N[C@@H](Cc2c[nH]c3ccccc23)C(=O)N[C@@H](CCC(N)=O)C(=O)N[C@@H](CC2CCC2)C(=O)N1)C(=O)N[C@@H](C)C(N)=O [compound 246] (Ac-LTF[R8]EYWWQ[Cba][S5]SA[Nle]A-NH2; staple 4-11)
8 | 10 to 100 | < 10 | 10 to 100 | 10 to 100 | CC[C@H](C)[C@H](NC(=O)[C@H](C)NC(=O)[C@H](C)NC(=O)[C@]1(C)CCCC=CCCCCCC[C@@](C)(NC(=O)[C@H](Cc2ccc(F)c(F)c2)NC(=O)[C@@H](NC(=O)[C@H](CC(C)C)NC(C)=O)[C@@H](C)O)C(=O)N[C@@H](CCC(=O)O)C(=O)N[C@@H](Cc2ccc(O)cc2)C(=O)N[C@@H](Cc2c[nH]c3ccccc23)C(=O)N[C@@H](C)C(=O)N[C@@H](CCC(N)=O)C(=O)N[C@@H](CC2CCC2)C(=O)N1)C(=O)N[C@H](C)C(N)=O [compound 248] (Ac-LT[Phe(3,4-F2)][R8]EYWAQ[Cba][S5]AAI[dA]-NH2; staple 4-11)
9 | 100 to 1000 | 100 to 1000 | > 1000 | > 1000 | CCCCCCCCCCCCCCCC(=O)N[C@@H](CCC(=O)O)C(=O)N[C@H](C(=O)N[C@@H](Cc1ccccc1)C(=O)N[C@]1(C)CCCCCCC=CCCC[C@@](C)(C(=O)N[C@@H](CO)C(=O)N[C@@H](C)C(=O)N[C@@H](C)C(N)=O)NC(=O)[C@H](CC2CCC2)NC(=O)[C@H](CCC(N)=O)NC(=O)[C@H](C)NC(=O)[C@H](Cc2c[nH]c3ccccc23)NC(=O)[C@H](Cc2ccc(O)cc2)NC(=O)[C@H](CCC(=O)O)NC1=O)[C@@H](C)O [compound 250] (Palmitoyl-ETF[R8]EYWAQ[Cba][S5]SAA-NH2; staple 4-11)
10 | 10 to 100 | < 10 | 10 to 100 | 10 to 100 | CC(=O)N[C@@H](CC(C)C)C(=O)N[C@H](C(=O)N[C@@H](Cc1ccccc1)C(=O)N[C@]1(C)CCCCCCC=CCCC[C@@](C)(C(=O)N[C@@H](CO)C(=O)N[C@@H](C)C(=O)N[C@@H](C)C(N)=O)NC(=O)[C@H](CC2CCC2)NC(=O)[C@H](CCC(N)=O)NC(=O)[C@H](C)NC(=O)[C@H](Cc2c[nH]c3ccccc23)NC(=O)[C@H](Cc2ccc(O)cc2)NC(=O)[C@H](C)NC1=O)[C@@H](C)O [compound 255] (Ac-LTF[R8]AYWAQ[Cba][S5]SAA-NH2; staple 4-11)
11 | 10 to 100 | < 10 | 10 to 100 | 10 to 100 | CC(=O)N[C@@H](CC(C)C)C(=O)N[C@H](C(=O)N[C@@H](Cc1ccccc1)C(=O)N[C@]1(C)CCCCCCC=CCCC[C@@](C)(C(=O)N[C@@H](CO)C(=O)N[C@@H](C)C(=O)N[C@@H](Cc2ccccc2)C(N)=O)NC(=O)[C@H](CC2CCC2)NC(=O)[C@H](CCC(N)=O)NC(=O)[C@H](C)NC(=O)[C@H](Cc2c[nH]c3ccccc23)NC(=O)[C@H](Cc2ccc(O)cc2)NC(=O)[C@H](CCC(=O)O)NC1=O)[C@@H](C)O [compound 256] (Ac-LTF[R8]EYWAQ[Cba][S5]SAF-NH2; staple 4-11)
12 | 10 to 100 | < 10 | 10 to 100 | 10 to 100 | CC(=O)N[C@@H](CC(C)C)C(=O)N[C@H](C(=O)N[C@@H](Cc1ccccc1)C(=O)N[C@]1(C)CCCCCCC=CCCC[C@@](C)(C(=O)N[C@@H](CO)C(=O)N[C@@H](C)C(=O)N[C@@H](Cc2ccccc2)C(=O)N[C@H](C)C(N)=O)NC(=O)[C@H](CC2CCC2)NC(=O)[C@H](CCC(N)=O)NC(=O)[C@H](C)NC(=O)[C@H](Cc2c[nH]c3ccccc23)NC(=O)[C@H](Cc2ccc(O)cc2)NC(=O)[C@H](CCC(=O)O)NC1=O)[C@@H](C)O [compound 257] (Ac-LTF[R8]EYWAQ[Cba][S5]SAF[dA]-NH2; staple 4-11)
13 | 10 to 100 | < 10 | 100 to 1000 | 10 to 100 | CC(=O)N[C@@H](CC(C)C)C(=O)N[C@H](C(=O)N[C@@H](Cc1ccccc1)C(=O)N[C@]1(C)CCCCCCC=CCCC[C@@](C)(C(=O)N[C@@H](CO)C(=O)N[C@@H](C)C(=O)N[C@@H](Cc2ccccc2)C(N)=O)NC(=O)[C@H](CC2CCC2)NC(=O)[C@H](CCC(N)=O)NC(=O)[C@H](C)NC(=O)[C@H](Cc2c[nH]c3ccccc23)NC(=O)[C@H](Cc2ccc(O)cc2)NC(=O)[C@H](C)NC1=O)[C@@H](C)O [compound 258] (Ac-LTF[R8]AYWAQ[Cba][S5]SAF-NH2; staple 4-11)
14 | 10 to 100 | < 10 | 10 to 100 | 10 to 100 | CC(=O)N[C@@H](CC(C)C)C(=O)N[C@H](C(=O)N[C@@H](Cc1ccc(F)c(F)c1)C(=O)N[C@]1(C)CCCCCCC=CCCC[C@@](C)(C(=O)N[C@@H](CO)C(=O)N[C@@H](C)C(=O)N[C@@H](Cc2ccccc2)C(N)=O)NC(=O)[C@H](CC2CCC2)NC(=O)[C@H](CCC(N)=O)NC(=O)[C@H](C)NC(=O)[C@H](Cc2c[nH]c3ccccc23)NC(=O)[C@H](Cc2ccc(O)cc2)NC(=O)[C@H](C)NC1=O)[C@@H](C)O [compound 259] (Ac-LT[Phe(3,4-F2)][R8]AYWAQ[Cba][S5]SAF-NH2; staple 4-11)
